Assays:
benzodiazepine receptor = assay: Displacement ability for benzodiazepine receptor ([3H]diazepam binding); parameters: species or system Wistar rats (cerebral cortex, crude synaptosomal fraction); settings: tritiated diazepam 2 nM, 0° C., 20 minutes, pH 7.4, rat cerebral cortex
Method: Compound J: 8-chloro-2-(4-chlorophenyl)-5,6-dihydro-[1]benzothiepino[5,4-c]pyridazin-3(2H)-one 7-oxide Experiment 1: Displacement ability for benzodiazepine receptor:
Experiment on the specific binding for benzodiazepine receptor was performed according to the method described in Life Science, vol. 20, p. 2101 (1977).
A crude synaptosomal fraction was isolated from the cerebral cortex of 9 to 10 week-old male Wistar rats and suspended in 50 mM of Tris-hydrochloric acid buffer solution (pH 7.4) containing 120 mM of sodium chloride and 5 mM of potassium chloride.
To the synaptosomal suspension as prepared above were added various concentrations of test compounds and tritiated diazepam (final concentration: 2 nM), and the mixture was incubated at 0° C. for 20 minutes. Then the suspension was filtered through Whatman GF/B glass fiber filter. After the filter was washed with the foregoing buffer solution, the radioactivity left on the filter was measured by a liquid scintillation spectrometry.
Specific binding was determined by subtracting binding in the presence of 10^-6 M unlabelled diazepam from total binding.
The affinity of the test compounds of the present invention for benzodiazepine receptor is evaluated as an ability to displace tritiated diazepam from the binding site, and is represented as Ki value.

[1] = system: bicuculline-induced tonic convulsion; assay: Anti-bicuculline effect; format: in vivo, male ddY-strain mice; settings: Mus musculus, po; mice, p.o. 1 hour before (+)bicuculline 0.6 mg/kg i.v.; tonic convulsion within 5 minutes
Method: Experiment 2: Anti-bicuculline effect:
The experiment of anti-bicuculline effect was performed according to the method described in Life Science, vol. 21, p. 1779 (1977).
Groups of 7-14 male ddY-strain mice weighing 20-28 g were used. (+)Bicuculline (0.6 mg/kg) was intraveneously administered 1 hour after the oral administration of test compound, and the ED50, 50% effective dose, was determined by observing the existence of tonic convulsion within 5 minutes.

[2] = system: number of shock in the punished period; assay: Anti-anxiety effect (anti-conflict test, Skinner-box); format: in vivo, male rats; settings: Rattus norvegicus; rats, oral; significant increment of number of shock in the punished period; read-out: Anti-anxiety effect MED
Method: Experiment 3: Anti-anxiety effect:
The experiment was carried out by using groups of 8 male rats which were maintained at approximately 80% of their free food weights by reducing food and employing a Skinner-box equipped with lever on the side and a grid on the floor.
The rats were placed in the Skinner-box and trained to press a lever in order to obtain milk. According to this training, the rats could obtain 0.1 ml of milk once by pressing the lever twenty times (Fix-ratio 20 reinforcement schedule, FR20).
After the rats was trained to obtain milk for 10 minutes according to FR20 (this period was hereinafter referred to as unpunished period), loud noise was given to the rats for 5 minutes (this period was hereinafter referred to as punished period). In this punished period, the rats could obtain milk everytime when they pushed the lever once, and also received a foot shock (AC 100V, 0.4-0.8 mA) for 0.3 second through the grid.
According to the repeated training of the unpunished period and the punished period, the animals which continuously pushed the lever in the unpunished period and rarely pushed, it in the punished period, and had the number of shock below 10 were provided to the experiment.
After the rats were orally administered with a test compound in 0.5% methylcellulose, the unpunished period (10 minutes) and the punished period (5 minutes) were alternately performed four times to the rats. The number of push of the lever in the unpunished period in 40 minutes and the number of shock in the punished period in 20 minutes were measured, and minimum effective dose (MED, mg/kg) was determined as the dose which observable the significant increment of number of shock in the punished period with being compared to the control group.

muscle-relaxant effect = assay: Muscle-relaxant effect (rotating rod); format: in vivo, male mice; settings: Mus musculus; mice, oral, 1 hour; rotating rod 11 rpm, drop within 1 minute
Method: Experiment 4: Muscle-relaxant effect:
Groups of 10 male mice each were administered orally with test compounds and an hour later placed on the rotating rod (2.8 cm in diameter) turning at a speed of 11 rpm. The ED50 (mg/kg) was calculated by the probit method as the dose which caused to drop the half number of mice from the rod within 1 minute.

righting reflex [3] = assay: Potentiation of narcotic effect (hexobarbital); format: in vivo, male mice; settings: mice, oral, 1 hour before hexobarbital 40 mg/kg i.p.; loss of righting reflex
Method: Experiment 5: Potentiation of narcotic effect:
(§1) Groups of 14 male mice, which were set in a room kept at 26° C., were administered orally with test compound and an hour later administered intraperitoneally with 40 mg/kg of hexobarbital. The righting reflex was tested at 15 and 30 minutes after hexobarbital treatment. The ED50 (mg/kg) was calculated by the probit method as the dose which caused loss of righting reflex for more than 3 seconds in half the mice.

righting reflex [4] = assay: Potentiation of alcoholic effect (ethanol); format: in vivo, male mice; settings: mice, oral, 1 hour before 30% ethanol 0.1 ml/10 g i.p.; loss of righting reflex
Method: Experiment 6: Potentiation of alcoholic effect:
as §1, with “0.1 ml/10 g” for “40 mg/kg”, “30% ethanol.” for “hexobarbital.”, “ethanol” for “hexobarbital”

Structure (SMILES)	Ki (benzodiazepine receptor) [nM]	ED50 [1] [mg/kg]	minimal effective dose [2] [mg/kg]	ED50 (muscle-relaxant effect) [mg/kg]	Potentiation of narcotic effect ED50 (righting reflex [3]) [mg/kg]	Potentiation of alcoholic effect ED50 (righting reflex [4]) [mg/kg]
O=c1cc2c(nn1-c1ccc(Cl)cc1)-c1ccccc1SCC2 [Compound A, 2-(4-chlorophenyl)-5,6-dihydro-[1]benzothiepino[5,4-c]pyridazin-3(2H)-one]	10	5.5	–	–	–	–
O=c1cc2c(nn1-c1ccc(Cl)cc1)-c1cc(Cl)ccc1[S+]([O-])CC2 (centres unmarked) [Compound B, 10-chloro-2-(4-chlorophenyl)-5,6-dihydro-[1]benzothiepino[5,4-c]pyridazin-3(2H)-one 7-oxide]	11	3.2	–	–	–	–
O=c1cc2c(nn1-c1ccc(Cl)cc1)-c1ccccc1[S+]([O-])CC2 (centres unmarked) [Compound C, 2-(4-chlorophenyl)-5,6-dihydro-[1]benzothiepino[5,4-c]pyridazin-3(2H)-one 7-oxide]	37	1.2	2.5	103	113	44
O=C1CC2CC[S+]([O-])c3ccccc3C2=NN1c1ccc(Cl)cc1 (centres unmarked) [Compound D, 2-(4-chlorophenyl)-4,4a,5,6-tetrahydro-[1]benzothiepino[5,4-c]pyridazin-3(2H)-one 7-oxide]	45	4.5	–	–	–	–
O=c1cc2c(nn1-c1ccc(Cl)cc1)-c1cc(F)ccc1SCC2 [Compound E, 2-(4-chlorophenyl)-10-fluoro-5,6-dihydro[1]benzothiepino[5,4-c]pyridazin-3(2H)-one]	14	2.2	–	–	–	–
O=c1cc2c(nn1-c1ccc(Cl)cc1)-c1cc(F)ccc1[S+]([O-])CC2 (centres unmarked) [Compound F, 2-(4-chlorophenyl)-10-fluoro-5,6-dihydro-[1]benzothiepino[5,4-c]pyridazin-3(2H)-one 7-oxide]	36	0.72	< 5	107	110	117
O=c1cc2c(nn1-c1ccc(Br)cc1)-c1ccccc1[S+]([O-])CC2 (centres unmarked) [Compound G, 2-(4-bromophenyl)-5,6-dihydro-[1]benzothiepino[5,4-c]pyridazin-3(2H)-one 7-oxide]	34	5.9	–	–	–	–
O=C1CC2CC[S+]([O-])c3ccccc3C2=NN1c1ccc(Br)cc1 (centres unmarked) [Compound H, 2-(4-bromophenyl)-4,4a,5,6-tetrahydro-[1]benzothiepino[5,4-c]pyridazin-3(2H)-one 7-oxide]	44	4.5	–	–	–	–
O=c1cc2c(nn1-c1ccc(F)cc1)-c1cc(F)ccc1SCC2 [Compound I, 10-fluoro-2-(4-fluorophenyl)-5,6-dihydro-[1]benzothiepino[5,4-c]pyridazin-3(2H)-one]	43	6	–	–	–	–
O=c1cc2c(nn1-c1ccc(Cl)cc1)-c1cccc(Cl)c1[S+]([O-])CC2 (centres unmarked) [Compound J, 8-chloro-2-(4-chlorophenyl)-5,6-dihydro-[1]benzothiepino[5,4-c]pyridazin-3(2H)-one 7-oxide]	11	0.67	< 5	> 500	> 200	> 500

Reference: patent publication US4849421A, “Anti-anxiety benzothiepino(5,4-c]pyridazines” (Yoshitomi Pharmaceutical Industries, Ltd., priority 1987, dated 1989)
